# Source: patent US20250134907A1, “FUSED DIAZEPINES AS AGONISTS OF THE INSULIN-LIKE 3 (INSL3) PEPTIDE RECEPTOR RXFP2 AND METHODS OF USE THEREOF” (The United States of America,as represented by the …, priority 2022, published 2025)
# What was measured:
# [1] = tested on: 320 GPCR Tango constructs; experiment: PRESTO-Tango GPCRome counter-screen (beta-arrestin recruitment) in transiently transfected HTLA cells; type: cell-based; settings: 10 μM compound, 320 GPCRs
# Protocol: The PRESTO-Tango GPCRome assay, which measures G-protein coupled receptors (GPCR) mediated beta-arrestin recruitment, was used to perform a HTS of related GPCRs to study specificity and selectivity of the RXFP2 agonists. A total of 320 GPCR Tango constructs were tested. Each of the GPCR constructs used in the assay contained a FLAG tag, the GPCR gene of interest, a Vasopressin 2 C-terminal tail, the TEV protease cleavage site, and the tetracycline-controlled transactivator (tTA) transcription factor. The assay was performed using transiently transfected HTLA cells that stably express the beta-arrestin2-TEV protease fusion protein and a luciferase reporter gene under the control of the tTA transcription factor. Ligand activation of the transfected GPCR construct induces beta-arrestin translocation to the GPCR, where the tobacco etch virus (TEV) protease cleaves the tTA transcription factor, causing activation of luciferase transcription in the nucleus. Thus, luciferase activity in these cells is proportional to beta-arrestin translocation activity. For this assay, HTLA cells were seeded in Poly-L-Lys (PLL)-coated 384-well white clear-bottom plates at 10,000 cell/well in 40 μl/well DMEM supplemented with 10% FBS. […] Plates were incubated for 20 minutes at room temperature protected from light and the luminescence signal was read on a MicroBeta counter (PerkinElmer, Waltham, MA). […]
# WT RXFP2 = biological target: T1, WT RXFP2 (Homo sapiens, UniProt Q8WXD0); experiment: HTRF cAMP assay in HEK293T cells transiently transfected with WT RXFP2; type: cell-based
# T1 construct: using full-length human RXFP1 and RXFP2 receptor constructs; FLAG; expressed in transfected cells; host or cells: HEK293T (transient, Lipofectamine2000)
# T1 sequence (Q8WXD0 whole entry): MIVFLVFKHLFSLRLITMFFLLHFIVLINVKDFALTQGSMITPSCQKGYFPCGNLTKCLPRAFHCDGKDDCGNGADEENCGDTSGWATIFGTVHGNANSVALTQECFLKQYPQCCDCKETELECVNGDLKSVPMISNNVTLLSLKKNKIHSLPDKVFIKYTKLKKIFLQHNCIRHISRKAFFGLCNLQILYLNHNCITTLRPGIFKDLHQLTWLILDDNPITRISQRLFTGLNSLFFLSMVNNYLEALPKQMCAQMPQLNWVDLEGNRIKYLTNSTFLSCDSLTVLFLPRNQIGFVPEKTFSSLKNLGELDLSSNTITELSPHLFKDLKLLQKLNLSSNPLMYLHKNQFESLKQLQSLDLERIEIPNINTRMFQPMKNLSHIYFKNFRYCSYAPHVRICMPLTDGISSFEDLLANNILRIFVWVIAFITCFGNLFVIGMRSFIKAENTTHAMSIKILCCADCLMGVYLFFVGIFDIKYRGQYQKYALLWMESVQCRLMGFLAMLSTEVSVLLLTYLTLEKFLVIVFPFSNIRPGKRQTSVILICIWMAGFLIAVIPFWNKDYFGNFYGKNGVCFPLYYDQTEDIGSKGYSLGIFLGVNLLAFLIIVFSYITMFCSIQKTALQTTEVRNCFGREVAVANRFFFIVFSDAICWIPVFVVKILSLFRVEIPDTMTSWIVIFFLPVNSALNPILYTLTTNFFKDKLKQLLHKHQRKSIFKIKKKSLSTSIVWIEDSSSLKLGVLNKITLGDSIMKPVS
# Description: (§1) To further investigate the involvement of the RXFP2 extracellular and transmembrane domains in agonist activation of the receptor, two complementary chimeras were created using the RXFP1 receptor, which is not activated by the agonists of formula (I), to transiently transfect HEK293T cells and measured changes in cAMP induction using the HTRF assay.
# (§2) Chimeric receptors were generated by IN-FUSION™ (Takara Bio USA, Inc., San Jose, CA) mutagenesis using full-length human RXFP1 and RXFP2 receptor constructs. Polymerase chain reaction (PCR) was performed using PfuTurbo high-fidelity DNA polymerase (Agilent Technologies, Santa Clara, CA) and overlapping primers with at least 15 bp sequence homology within the fusion site. PCR products were digested with Dpnl restricton enzyme at 37° C. overnight, run on a 0.8% agarose gel and purified using the GENEJET™ Gel extraction kit (Thermo Scientific, Waltham, MA). The purified DNA fragments were then ligated into the BamHI and XhoI pre-digested pcDNA3.1™/Zeo(+) AmpR mammalian expression vector using the In-Fusion HD enzyme premix (Clontech, Mountain View, CA) at 50° C. for 15 minutes, and the resulting product was used to transform Stellar competent cells (Takara Bio USA, Inc., San Jose, CA). The clones were fully sequenced to confirm the correct fusion of both receptor fragments. Chimera RXFP2-1 contained the extracellular domain of RXFP2 and the transmembrane domain of RXFP1. Accordingly, chimera RXFP1-2 contained the extracellular domain of RXFP1 and the transmembrane domain of RXFP2.
# (§3) HEK293T cells were seeded in 6-well flat-bottom clear plates at 0.5 million cells/well in 2 mL/well of growth medium (DMEM, 10% FBS, 1× Pen/Strep) and allowed to attach overnight at 37° C. and 5% CO2. The next morning, cells were transfected with 2 μg of plasmid (chimeric receptors, WT RXFP2, or WT RXFP1) and 6 μl of Lipofectamine2000 (Invitrogen, Waltham, MA) in a total volume of 200 μl/well OPTI-MEM™ I (Thermo Fisher, Waltham, MA) reduced serum medium and allowed to incubate an additional 24 hours. The next day, transfected cells were seeded in 96-well flat-bottom opaque plates at 30,000 cells/well in 60 μL/well of serum-free DMEM medium and allowed to attach overnight at 37° C. at 5% CO2. The next morning, cells were treated with 1 μL/well of compound (25 μM-0.25 nM), 2 μM forskolin, or DMSO vehicle. Cells were also treated with 4 μL of positive control INSL3 (100-0.01 nM), Relaxin2 (100-10 nM), or vehicle (serum-free DMEM+IBMX). Plates were incubated for 1 hour at 37° C. and 5% CO2, after which kit cAMP-d2 and anti-cAMP antibody were added as previously described. Cells were incubated for 1 hour at room temperature, and then the signal was read on a CLARIOstar plate reader (BMG Labtech, Germany).
# [2] = tested on: chimera RXFP2-1 (extracellular domain of RXFP2, transmembrane domain of RXFP1); experiment: HTRF cAMP assay in HEK293T cells transiently transfected with chimera RXFP2-1; type: cell-based, human
# Description: as §1, §2, §3
# [3] = tested on: trabecular bone of L3 vertebrae; experiment: Bone anabolic study, microCT of L3 vertebrae; type: in vivo, C57BL/6J female mice; settings: 10 mg/kg oral gavage every other day, 8 weeks, vs vehicle
SMILES,GPCR agonist hits (minimum 3.0-fold RLU of basal) [1],"Emax (WT RXFP2; HEK-293T, normalized to 2 μM forskolin cAMP response as 100% activity) [%]",EC50 (WT RXFP2; read-out: EC50 (μM or nM)) [µM],cAMP response of chimera RXFP2-1 [2],bone volume per tissue volume (BV/TV) [3],trabecular number (Tb.N) [3],trabecular separation (Tb.Sp) [3],trabecular thickness (Tb.Th) [3]
"O=C1Nc2ccc(-c3cc(C(F)(F)F)cc(C(F)(F)F)c3)cc2C(=O)N2CCN(C(=O)COc3ccc(OC(F)(F)F)cc3Br)C[C@@H]12 [Example 158, (S)-8-(3,5-Bis(trifluoromethyl)phenyl)-2-(2-(2-bromo-4-(trifluoromethoxy)phenoxy)acetyl)-1,3,4,12a-tetrahydrobenzo[e]pyrazino[1,2-a][1,4]diazepine-6,12 (2H, 11H)-dione]",very few GPCR hits,,,,,,,
"O=C1Nc2ccc(-c3cc(C(F)(F)F)cc(C(F)(F)F)c3)cc2C(=O)N2CCN(C(=O)COc3ccc(OC(F)(F)F)cc3I)C[C@@H]12 [Example 187, (S)-8-(3,5-bis(trifluoromethyl)phenyl)-2-(2-(2-iodo-4-(trifluoromethoxy)phenoxy)acetyl)-1,3,4,12a-tetrahydrobenzo[e]pyrazino[1,2-a][1,4]diazepine-6,12 (2H, 11H)-dione]",,86.3 ± 3.38,0.012 ± 0.008,no response,small non-significant improvement,significant increase,small non-significant improvement,significant increase
